Source: US20240277693A1, “A PHARMACEUTICAL PRODUCT CONTAINING TASQUINIMOD AND A METHOD FOR ASSESSING THE PURITY OF SAID PRODUCT” (ACTIVE BIOTECH AB, priority 2021, published 2024)

Tests used:
Type in all cases: physicochemical
[1] = Assessment of capsules after manufacture: amount of tasquinimod and of decomposition products; details: 0 months (after manufacturing)
Source text: (§1) In some embodiments, the method disclosed herein comprises storing (keeping) a sample of the pharmaceutical product for a period of time, preferably under selected conditions of temperature and humidity. The amount (or concentration) of tasquinimod and of at least one of compounds I, II, III and IV in the sample may preferably be determined at the beginning or before the storage period and at the end of the storage period. The selected storage conditions may include a temperature in the range of, for example, 20° C. to 40° C., and a relative humidity in the surrounding atmosphere in the range of, for example, 30% to 75%; e.g. 25° C. and 60% RH, or 30° C. and 65% RH, or 35° C. and 70% RH, or 40° C. and 75% RH. The storage period may extend over a time period in the range of, for example, several weeks to several years. For example, the stability testing period (“storage period”) may be 2 weeks, 3 weeks, 1 month, 2 months, 3 months, 4 months, 5 months, 6 months, 9 months, 1 year, 18 months, 2 years, 3 years, 4 years or even 5 years or longer. A shorter storage period may be selected by use of higher storage temperature and/or higher relative humidity (RH). The total amount of a tasquinimod decomposition product in the sample at the end of the storage period may be determined by, for example, HPLC.
The obtained batch of capsules was assessed by determining the amount of tasquinimod and the amount of compound III in a sample of the capsules. The selected criterion for approving the batch was that the capsules of the sample contain not more than 1.0% w/w of compound III relative to the amount of tasquinimod. […] Therefore, according to the selected criterion for approval, the batch of capsules was determined to be suitable for distribution.
The obtained batch of capsules was assessed by determining the amount of tasquinimod and the amount of compounds I, II, III and IV in a sample of the capsules. The selected criterion for approving the batch was that the capsules of the sample contain not more than in total 5% w/w of compounds I-IV relative to the amount of tasquinimod. […] Therefore, according to the selected criterion for approval, the batch of capsules was determined to be suitable for distribution.
(§2) The obtained batch of capsules was subjected to multiple assessments, viz. a first assessment comprising determining the amount of tasquinimod and the amount of compounds I, II, III and IV in a sample of the capsules directly after manufacturing, whereby the selected criterion for approving the batch for distribution was that the capsules of the sample, in a water impermeable blister pack, contain not more than in total 5% w/w of compounds I-IV relative to the amount of tasquinimod, followed by eight further, independent assessments, by determining the amount of tasquinimod and the amount of each one of compounds I, II, III and IV in a sample of the capsules at the end of a period of stability testing (by keeping the capsules, in a water impermeable blister pack, at 25° C./60% RH) of 3, 6, 9, 12, 18, 24, 36 and 48 months, respectively, whereby each time the criterion for approving the batch was that the capsules of the sample, at the end of each period of stability testing, contain a total amount of compounds I-IV of not more than 5.0% w/w, relative to the amount of tasquinimod in the capsules.

[2] = Drug product stability studies (general observations)
Source text: In a drug product, compound I is formed with compound II from hydrolysis of tasquinimod. […] Compound II is further decarboxylated to form compound III.
Compound III is the decarboxylated species formed from the degradation of compound II.
The mechanism for formation of compound IV in a drug product is unknown.

[3] = Stability testing of capsules at 25° C./60% RH in water impermeable blister pack
Source text: as §1
The batch of capsules manufactured in Example 19 was assessed by determining the amount of tasquinimod and the amount of each one of compounds I, II, III and IV in a sample of the capsules at the end of a 3-month stability testing, whereby the criterion for approving the batch was that the capsules of the sample, at the end of the 3-month stability testing, contain a total amount of compounds I-IV of not more than 5.0% w/w, relative to the amount of tasquinimod in the capsules. The stability testing consisted of keeping the capsules, in a water impermeable blister pack, at 25° C./60% RH. At the end of the stability testing, the capsules contained 0.06% w/w of compound I, less than 0.05% w/w of compound II, 0.10% of compound III and less than 0.05% w/w of compound IV, relative to the amount of tasquinimod (determined to be 0.246 mg/capsule), viz. in total less than 0.26% w/w of compounds I-IV relative to the amount of tasquinimod. Therefore, according to the selected criterion for approval, the batch of capsules was determined to be suitable for distribution.
as §2

[4] = 0.25 mg capsules of Example 19, 18 months
[5] = 0.25 mg capsules of Example 19, 24 months
[6] = 0.25 mg capsules of Example 19, 36 months
[7] = 0.25 mg capsules of Example 19, 48 months
[8] = 0.5 mg capsules of Example 28, 3 months
[9] = 0.5 mg capsules of Example 28, 6 months
[10] = 0.5 mg capsules of Example 28, 9 months
[11] = 0.5 mg capsules of Example 28, 12 months
[12] = 0.5 mg capsules of Example 28, 18 months
[13] = 0.5 mg capsules of Example 28, 24 months
[14] = 0.5 mg capsules of Example 28, 36 months
[15] = 0.5 mg capsules of Example 28, 48 months
[16] = 1.0 mg capsules of Example 29, 3 months
[17] = 1.0 mg capsules of Example 29, 6 months
[18] = 1.0 mg capsules of Example 29, 9 months
[19] = 1.0 mg capsules of Example 29, 12 months
[20] = 1.0 mg capsules of Example 29, 18 months
[21] = 1.0 mg capsules of Example 29, 24 months
[22] = 1.0 mg capsules of Example 29, 36 months
[23] = 1.0 mg capsules of Example 29, 48 months

Row | Decomposition products (% w/w), relative to the amount of tasquinimod in capsule ([1]; 0.5 mg capsules of Example 28) [% w/w] | Decomposition products (% w/w), relative to the amount of tasquinimod in capsule ([1]; 1.0 mg capsules of Example 29) [% w/w] | change of the amount of the compound in tasquinimod drug product on storage [2] | amount of decomposition product (each of compounds I-IV) in capsules, relative to the amount of tasquinimod [3, 4] [% w/w] | amount of decomposition product (each of compounds I-IV) in capsules, relative to the amount of tasquinimod [3, 5] [% w/w] | amount of decomposition product (each of compounds I-IV) in capsules, relative to the amount of tasquinimod [3, 6] [% w/w] | amount of decomposition product (each of compounds I-IV) in capsules, relative to the amount of tasquinimod [3, 7] [% w/w] | Decomposition products (% w/w), relative to the amount of tasquinimod in capsule [3, 8] [% w/w] | Decomposition products (% w/w), relative to the amount of tasquinimod in capsule [3, 9] [% w/w] | Decomposition products (% w/w), relative to the amount of tasquinimod in capsule [3, 10] [% w/w] | Decomposition products (% w/w), relative to the amount of tasquinimod in capsule [3, 11] [% w/w] | Decomposition products (% w/w), relative to the amount of tasquinimod in capsule [3, 12] [% w/w] | Decomposition products (% w/w), relative to the amount of tasquinimod in capsule [3, 13] [% w/w] | Decomposition products (% w/w), relative to the amount of tasquinimod in capsule [3, 14] [% w/w] | Decomposition products (% w/w), relative to the amount of tasquinimod in capsule [3, 15] [% w/w] | Decomposition products (% w/w), relative to the amount of tasquinimod in capsule [3, 16] [% w/w] | Decomposition products (% w/w), relative to the amount of tasquinimod in capsule [3, 17] [% w/w] | Decomposition products (% w/w), relative to the amount of tasquinimod in capsule [3, 18] [% w/w] | Decomposition products (% w/w), relative to the amount of tasquinimod in capsule [3, 19] [% w/w] | Decomposition products (% w/w), relative to the amount of tasquinimod in capsule [3, 20] [% w/w] | SMILES | other results
1 | <0.05 | <0.05 | increase under any storage conditions | 0.10 | 0.13 | 0.16 | 0.16 | <0.05 | 0.05 | 0.06 | 0.07 | 0.06 | 0.07 | 0.07 | 0.08 | <0.05 | <0.05 | <0.05 | <0.05 | <0.05 | CNc1ccc(C(F)(F)F)cc1 [Compound I, N-methyl-4-(trifluoromethyl)aniline] | amount of decomposition product (each of compounds I-IV) in capsules, relative to the amount of tasquinimod ([3]; 0.25 mg capsules of Example 19, 3 months): 0.06 % w/w; amount of decomposition product (each of compounds I-IV) in capsules, relative to the amount of tasquinimod ([3]; 0.25 mg capsules of Example 19, 6 months): 0.08 % w/w; amount of decomposition product (each of compounds I-IV) in capsules, relative to the amount of tasquinimod ([3]; 0.25 mg capsules of Example 19, 9 months): 0.12 % w/w; amount of decomposition product (each of compounds I-IV) in capsules, relative to the amount of tasquinimod ([3]; 0.25 mg capsules of Example 19, 12 months): 0.11 % w/w; Decomposition products (% w/w), relative to the amount of tasquinimod in capsule [3, 21]: <0.05 % w/w; Decomposition products (% w/w), relative to the amount of tasquinimod in capsule [3, 22]: <0.05 % w/w; Decomposition products (% w/w), relative to the amount of tasquinimod in capsule [3, 23]: <0.05 % w/w
2 | <0.05 | <0.05 | slight increase | 0.05 | 0.05 | 0.06 | 0.06 | <0.05 | <0.05 | <0.05 | <0.05 | <0.05 | <0.05 | <0.05 | <0.05 | <0.05 | <0.05 | 0.06 | 0.06 | 0.06 | COc1cccc2c1c(O)c(C(=O)O)c(=O)n2C [Compound II, 4-hydroxy-5-methoxy-1-methyl-2-oxo-1,2-dihydroquinoline-3-carboxylic acid] | Decomposition products (% w/w), relative to the amount of tasquinimod in capsule [3, 21]: 0.06 % w/w; Decomposition products (% w/w), relative to the amount of tasquinimod in capsule [3, 22]: 0.07 % w/w; Decomposition products (% w/w), relative to the amount of tasquinimod in capsule [3, 23]: 0.08 % w/w
3 | <0.05 | <0.05 | increase under accelerated conditions | 0.07 | 0.10 | 0.15 | 0.19 | <0.05 | <0.05 | <0.05 | <0.05 | <0.05 | 0.06 | 0.09 | 0.11 | <0.05 | <0.05 | <0.05 | <0.05 | <0.05 | COc1cccc2c1c(O)c(Cc1c(O)c3c(OC)cccc3n(C)c1=O)c(=O)n2C [Compound IV, 3,3′-methylenebis(4-hydroxy-5-methoxy-1-methylquinolin-2(1H)-one)] | Decomposition products (% w/w), relative to the amount of tasquinimod in capsule [3, 21]: <0.05 % w/w; Decomposition products (% w/w), relative to the amount of tasquinimod in capsule [3, 22]: <0.05 % w/w; Decomposition products (% w/w), relative to the amount of tasquinimod in capsule [3, 23]: <0.05 % w/w
